Assay results published in patent US20230241064A1, “METHODS OF TREATMENT AND/OR PREVENTION OF MAJOR ADVERSE CARDIOVASCULAR EVENTS (MACE) WITH A COMBINATION OF A BET BROMODOMAIN INHIBITOR AND A DIPEPTIDYL PEPTIDASE 4 INHIBITOR” (Resverlogix Corp., priority 2020, published 2023).

Legend:
[1] = tested on: type 2 diabetes patients with low HDL cholesterol and a recent acute coronary syndrome (ACS); test: BETonMACE post-hoc analysis: cumulative incidence of broadly defined MACE; type: in vivo, human; conditions: patients without DPP-4 inhibitor; vs placebo (non-treatment); FIG. 5
[2] = tested on: type 2 diabetes patients with low HDL cholesterol and a recent acute coronary syndrome (ACS); test: BETonMACE post-hoc analysis: cumulative incidence of non-fatal myocardial infarction; type: in vivo, human; conditions: patients without DPP-4 inhibitor; vs placebo (non-treatment); FIG. 8
Protocol: (§1) Apabetalone (RVX-208) was evaluated in a recently completed clinical Phase 3 trial (BETonMACE; NCT02586155) for the effect on MACE in type 2 diabetes patients with low HDL cholesterol (below 40 mg/dL for males and below 45 mg/dL for females) and a recent acute coronary syndrome (ACS). All patients received high intensity statin treatment, which was 20-40 mg daily or a maximum daily dose of 40 mg for rosuvastatin or 40-80 mg daily or a maximum daily dose of 80 mg for atorvastatin.
(§2) Patients (n=2425) with ACS in the preceding 7 to 90 days, with type 2 diabetes and low HDL cholesterol (≤40 mg/dl for men, ≤45 mg/dl for women), receiving intensive or maximum-tolerated therapy with atorvastatin or rosuvastatin, were assigned in double-blind fashion to receive apabetalone 100 mg orally twice daily or matching placebo. Baseline characteristics include female sex (25%), myocardial infarction as index ACS event (74%), coronary revascularization for index ACS (76%), treatment with dual anti-platelet therapy (87%) and renin-angiotensin system inhibitors (91%), median LDL cholesterol 65 mg per deciliter, and median HbA1c 7.3%. The primary efficacy measure is time to first occurrence of cardiovascular death, non-fatal myocardial infarction, or stroke. Assumptions include a primary event rate of 7% per annum in the placebo group and median follow-up of 1.5 years. […]

[3] = tested on: type 2 diabetes patients with low HDL cholesterol and a recent acute coronary syndrome (ACS); test: BETonMACE Phase 3 trial post-hoc analysis: cumulative incidence of narrowly defined MACE; type: in vivo, human
Protocol: Patients (n=2425) with ACS in the preceding 7 to 90 days, with type 2 diabetes and low HDL cholesterol (≤40 mg/dl for men, ≤45 mg/dl for women), receiving intensive or maximum-tolerated therapy with atorvastatin or rosuvastatin, were assigned in double-blind fashion to receive apabetalone 100 mg orally twice daily or matching placebo. Baseline characteristics include female sex (25%), myocardial infarction as index ACS event (74%), coronary revascularization for index ACS (76%), treatment with dual anti-platelet therapy (87%) and renin-angiotensin system inhibitors (91%), median LDL cholesterol 65 mg per deciliter, and median HbA1c 7.3%. The primary efficacy measure is time to first occurrence of cardiovascular death, non-fatal myocardial infarction, or stroke. Assumptions include a primary event rate of 7% per annum in the placebo group and median follow-up of 1.5 years. Patients were followed until at least 250 primary endpoint events had occurred, providing 80% power to detect a 30% reduction in the primary endpoint with apabetalone.
Those patients who received at least one dose of DPP-4 inhibitor treatment after the date of the first incidence of event were censored as non-MACE events and the date of last contact was used as the censoring date.
The distributions of the endpoints within the apabetalone and placebo groups were compared using a two-sided log-rank test (LRT) with an alpha=0.05 level of significance. The cumulative incidence is shown as 1-KM (Kaplan-Meier) estimate for event rate.

[4] = tested on: type 2 diabetes patients with low HDL cholesterol and a recent acute coronary syndrome (ACS); test: BETonMACE post-hoc analysis: cumulative incidence of cardiovascular death; type: in vivo, human; conditions: patients without DPP-4 inhibitor; vs placebo (non-treatment); FIG. 11
Protocol: as §1, §2

[5] = tested on: type 2 diabetes patients with low HDL cholesterol and a recent acute coronary syndrome (ACS); test: BETonMACE post-hoc analysis: cumulative incidence of hospitalization for congestive heart failure; type: in vivo, human; conditions: patients without DPP-4 inhibitor, vs placebo (non-treatment)
[6] = vs placebo; TECOS trial; cited from earlier work
[7] = EXAMINE; cited from earlier work

## COc1cc(OC)c2c(=O)[nH]c(-c3cc(C)c(OCCO)c(C)c3)nc2c1 [apabetalone, 2-(4-(2-hydroxyethoxy)-3,5-dimethylphenyl)-5,7-dimethoxyquinazolin-4(3H)-one]
[1]
  Hazard Ratio, broadly defined MACE: 1.00
[2]
  Hazard Ratio, non-fatal myocardial infarction: 0.99
[3]; apabetalone 100 mg orally twice daily, on statin, per treatment group
  number of primary end points (narrowly defined MACE: cardiovascular death, non-fatal myocardial infarction, or stroke): 114
[3]; at 18 months
  Kaplan-Meier estimated event rate, narrowly defined MACE: 8.0%
[3]; patients without DPP-4 inhibitor, vs placebo (non-treatment), FIG. 2
  Hazard Ratio, narrowly defined MACE: 0.99
[3]; per treatment group
  primary end points (narrowly defined MACE) as percent of group: 10.9%
[4]
  Hazard Ratio, cardiovascular death: 0.97
[5]
  reduction of number of patients having a hospitalization for congestive heart failure event at any given time: 27%
[5]; FIG. 14
  Hazard Ratio, hospitalization for congestive heart failure: 0.73

## N[C@@H](CC(=O)N1CCn2c(nnc2C(F)(F)F)C1)Cc1cc(F)c(F)cc1F [sitagliptin]
[6]
  hazard ratio (HR), 3-point MACE composite outcome: 0.99
  hazard ratio (HR), 4-point MACE composite outcome: 0.98

## Cn1c(=O)cc(N2CCC[C@@H](N)C2)n(Cc2ccccc2C#N)c1=O [alogliptin]
[7]
  effect on the 3-point MACE composite outcome of cardiovascular death, myocardial infarction, or ischemic stroke: neutral effect
